We go through 4 molecules from patent US20170095565A1, “CHEMICALLY MODIFIED SMALL MOLECULES” (Nektar Therapeutics, priority 2003, published 2017).

Broadly, the IC50 is the concentration at which inhibition is half-maximal. A word on the EC50: it is the midpoint of the concentration-response curve. A low value points to greater potency. For orientation: Ki means a measure of affinity in units of concentration, obtained from inhibition or displacement.

Like-named read-outs stand apart in the source and are kept apart here.

The nature of series [1]: Solubility of tested compounds (Table 1).
For the next series, the target named is Mu-opiate (Homo sapiens, UniProt P35372). Conditions: read-out: IC50, Mu-opiate binding activity.
Sequence of Mu-opiate (P35372 whole entry): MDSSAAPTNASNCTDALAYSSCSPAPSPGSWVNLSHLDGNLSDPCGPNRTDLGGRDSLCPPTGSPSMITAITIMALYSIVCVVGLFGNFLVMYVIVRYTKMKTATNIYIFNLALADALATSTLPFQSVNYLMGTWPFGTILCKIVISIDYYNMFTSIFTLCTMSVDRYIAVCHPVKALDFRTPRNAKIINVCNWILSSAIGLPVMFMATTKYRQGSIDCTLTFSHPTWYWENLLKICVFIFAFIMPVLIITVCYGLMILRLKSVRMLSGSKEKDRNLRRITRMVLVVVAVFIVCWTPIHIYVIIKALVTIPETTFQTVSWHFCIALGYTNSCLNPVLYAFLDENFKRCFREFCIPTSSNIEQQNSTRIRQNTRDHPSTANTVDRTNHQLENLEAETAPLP
Series [2] is described as follows: In-vitro metabolism, incubation with liver microsomes. A general note: Microsomes from liver hold many membrane-bound enzymes, among them those of drug oxidation.
Description: The procedure calls for the preparation of a NADPH regenerating system (NRS) solution. […] After the solids were all dissolved, the solution was stored in an ice bath.
Male Sprague Dawley rat microsomes (0.5 mL at 20 mg/mL concentration; M00001 from In-vitro Technologies, Baltimore, Md.) were removed from the freezer and thawed in an ice bath. Forty μL of the liver microsomes were diluted to 100 μL with 60 μL of deionized water in a test vial. To the test vial, tris buffer, pH 7.4 (640 μL) and a test article stock (10 μL) were added to have 750 μL volume.
Each test vial and the NRS solution were separately placed in a 37° C. water bath for 5 minutes. The NRS solution (250 μL) was added into each test vial. The reaction timer was started at the addition of the NRS to the first test vial. Each sample (200 μL) was collected and then perchloric acid (20 μL) was added to terminate the reaction. The samples were collected at the following time points: 0-2, 20, 40 and 60 minutes. All of the terminated test vials were stored in an ice bath.
Acetonitrile (100 μL) was added into each test vial, which was then centrifuged at 3000×g for 5 minutes. Supernatant (230 μL) was withdrawn and then 10 μL of the test solution was assayed by an LC/MS method. The concentration of test article in each sample was measured and recorded at each time point.
A further series deals with μ-Opiate Receptors (Homo sapiens, UniProt P35372). Description: biochemical. It is filed as biochemical. An excerpt: In the table above, for each compound, the bioactivity is provided as a measure of the relative bioactivity of each of the various PEG conjugates in comparison to parent drug. The EC50 is the concentration of agonist that provokes a response halfway between the baseline and maximum response in a standard dose-response curve.
Sequence of μ-Opiate Receptors (P35372 whole entry): as above

Series [3] in a line: Oral bioavailability: plasma concentration after oral gavage. It is filed as in vivo, Sprague Dawley rats. Conditions: rats, PEGylated compounds normalized to 1 mg/kg dose. On the procedure: Female Sprague Dawley® rats (150-200 g) were obtained from Harlan Labs. […] The animals were fasted overnight (day −1), but water was provided ad libitum.
On the morning of dosing (day 0), each rat was weighed and the cannulas flushed with heparin (1000 U/mL). With the aid of a feeding tube, the animals were then dosed orally (gavage) with aqueous formulations containing either the PEGylated or the free drug. The dose was determined on a mg/kg body weight basis. […] At specific time intervals (1, 2 and 4 hours), blood samples (approximately 1.0 mL) were removed through the cannula, placed in 1.5 mL centrifuge tubes containing 14 μL of heparin, mixed and centrifuged to separate the plasma. The plasma samples were frozen (<−70° C.) until assayed. The plasma samples were purified by a precipitation technique and the analyte extracted and assayed using a high performance liquid chromatography (LC) method with a mass selective detector (MSD). […] When appropriate, an internal standard was used in the analysis.

The target in series [4] is T1, human glucocorticoid receptor (hGR) (Homo sapiens, UniProt P04150).
T1 construct: expressed in transfected cells; host or cells: Chinese Hamster Ovary (CHO) cells
T1 sequence (P04150 1-777): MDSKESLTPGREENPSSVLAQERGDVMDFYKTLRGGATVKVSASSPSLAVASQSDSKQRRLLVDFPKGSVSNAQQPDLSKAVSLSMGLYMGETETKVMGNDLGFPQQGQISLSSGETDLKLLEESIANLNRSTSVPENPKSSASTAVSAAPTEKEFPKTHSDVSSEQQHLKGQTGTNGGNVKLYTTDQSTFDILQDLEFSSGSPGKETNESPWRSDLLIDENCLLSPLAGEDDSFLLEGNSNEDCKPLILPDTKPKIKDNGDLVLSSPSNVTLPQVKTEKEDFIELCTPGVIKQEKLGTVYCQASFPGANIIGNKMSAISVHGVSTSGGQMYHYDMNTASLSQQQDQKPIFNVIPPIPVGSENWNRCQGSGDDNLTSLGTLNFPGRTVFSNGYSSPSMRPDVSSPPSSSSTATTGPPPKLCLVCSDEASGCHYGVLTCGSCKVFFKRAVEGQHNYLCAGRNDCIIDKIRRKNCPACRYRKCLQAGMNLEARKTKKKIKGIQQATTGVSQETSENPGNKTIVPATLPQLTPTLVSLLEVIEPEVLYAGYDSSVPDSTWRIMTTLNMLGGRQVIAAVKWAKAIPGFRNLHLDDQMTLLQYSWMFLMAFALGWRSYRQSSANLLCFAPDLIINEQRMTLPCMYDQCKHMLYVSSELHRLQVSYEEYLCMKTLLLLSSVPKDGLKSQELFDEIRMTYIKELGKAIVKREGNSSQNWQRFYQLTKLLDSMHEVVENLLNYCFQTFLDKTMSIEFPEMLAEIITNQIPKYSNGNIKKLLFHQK
Description: Steroid-induced nuclear translocation assay of hGR in CHO cells. Format: cell-based. On the procedure: To determine whether PEGylated steroids can enter cells, and to compare their potency with the parent steroid triamcinolone, cells expressing the human glucocorticoid receptor (hGR) were incubated with increasing concentrations of TA, PEG-3-TA and PEG-7-TA, and the subcellular location of the hGR determined using immunocytochemistry and fluorescence microscopy.
Chinese Hamster Ovary (CHO) cells were plated on glass coverslips in 24-well plates, and transfected with DNA encoding the hGR using 0.25 μg DNA per well. One day following transfection, cells were incubated with increasing concentrations, from 1 nM to 10 μM, of TA, PEG-3-TA or PEG-7-TA, overnight at 37° C.
Stock solutions of steroids were prepared at 2 mM (TA) or 1 mM (PEG-3-TA, PEG-7-TA) in ethanol. Each test compound was diluted to 10 μM into culture medium supplemented with dextran-coated charcoal treated serum (DCCS) (final 5% serum), and then further diluted to the final concentrations. […] Dilutions of steroid were calculated to ensure that cells were not exposed to ethanol concentrations greater than 1% (v/v). […]
Following treatment with test compounds, cells were fixed in 3.7% (v/v) formaldehyde/PBS and permeabilized with 1% (v/v) Triton-X-100 in blocking buffer. Subcellular localization of the transfected hGR was determined by immunocytochemistry using an anti-GR antibody and a FITC-conjugated secondary antibody. […]

Series [5] deals with T2, recombinant human glucocorticoid receptor (Homo sapiens, UniProt P04150).
T2 construct: purchased PanVera
T2 sequence (P04150 1-777): T1 sequence (P04150 1-777)
Description: Cell-free glucocorticoid receptor binding assay (fluorescence polarization). Conditions: for Ki: ± standard error, TA n = 2. The text has this: The assay is based on competitive inhibition binding of a fluorescently labeled high affinity ligand, and generates Ki values that can be compared between the test compounds. […] Thus, as with EC5o values, a higher Ki value reflects a weaker binding affinity.
A commercially available GR binding assay based on fluorescence polarization (FP) was utilized to compare the binding affinity of the PEGylated and native steroids (PanVera Glucocorticoid Receptor Competitor Assay). The assay is based on competitive inhibition and measures the ability of the test compound to compete with a fluorescently labeled ligand (Fluormone™ GS1) for binding to a purified preparation of the recombinant human glucocorticoid receptor.
In its free unbound form, the fluorescent ligand behaves as a small molecule with a high rotational velocity or “tumbling rate”, and correspondingly low ability to polarize fluorescence light (i.e. a low FP). When bound to receptor, the ligand essentially becomes part of a larger molecule, with a slower rotational velocity and a higher FP.
Standard competition assay procedures were employed. Briefly, serial dilutions of the test compound were incubated in triplicate wells of a black 96-well microplate together with the fluorescent ligand, and reactions were initiated by addition of purified recombinant receptor. Assays were incubated in the dark for 2-4 h, and then polarization values were read using the fluorescence polarization function of the Tecan Genios Pro microplate reader.
For orientation: In fluorescence polarisation assays a small probe gives low polarisation when free and higher when bound to something large.

For another series, the target named is T3, hGR (Homo sapiens, UniProt P04150).
T3 construct: expressed in transfected cells; host or cells: COS-7 cells
T3 sequence (P04150 1-777): T1 sequence (P04150 1-777)
Nature of the series: Glucocorticoid receptor luciferase reporter assay in COS-7 cells. It is filed as cell-based. Conditions: for EC50: ± standard error, 20 hours incubation, TA n = 1. An excerpt: To quantitate the effect of PEGylation on the ability of the steroid to enter a cell and elicit a response, a glucocorticoid receptor reporter assay was employed. In this assay, treatment of cells with ligand leads to receptor-mediated expression of the firefly luciferase gene. The level of gene expression is quantitated by an enzymatic luciferase assay, and the amount of light produced is directly proportional to the expression level of the luciferase gene.
For these experiments, the Promega Dual Luciferase Reporter kit was employed. This involves a firefly luciferase reporter gene under the control of the Glucocorticoid Response Element (GRE-Luc), co-transfected into COS-7 cells with a gene encoding the hGR and a control vector containing a Renilla luciferase reporter gene under no promoter or enhancer elements (pRL-Null). The firefly luciferase gene is expressed only upon binding of a ligand-bound receptor to the GRE-Luc enhancer. […]
Cos-cells were plated in 96-well microplates and transfected with the relevant plasmids using standard procedures; all incubations and assays were performed in triplicate in these plates using medium containing DCCS, as described in section 8.3.1. […] Cells were then lysed, and the expression levels of firefly and Renilla luciferase were determined by sequential enzymatic assays provided by the Promega Dual Luciferase Reporter Assay kit. The resulting luminescence was detected using the Tecan Genios Pro Microplate reader, and data were analyzed using GraphPad Prism 4.0 software.
Readings obtained in the absence of steroid represent “basal” background levels of luciferase expression. All readings in the presence of steroid are expressed as a ratio compared with this, and termed “fold increase over basal.” Values obtained for firefly luciferase were normalized to those obtained for Renilla luciferase in the corresponding well in order to compensate for differences in transfection efficiency or cell number.
Background: In a reporter assay the amount or activity of a reporter protein is the signal.

The conditions of series [6]: in vivo; cited from earlier work.

As for `C=CCN1CC[C@]23c4c5ccc(O)c4O[C@H]2C(OCCOCCOCCOC)CC[C@@]3(O)[C@H]1C5` (stereo partly drawn) [β-PEG3-Nal, β-6-CH3—(OCH2CH2)3—O-naloxol], the Solubility entry in series [1] is “soluble”. The IC50 on Mu-opiate stood at 31.7 nM. The “Substrate quality for cytochrome P450 isozymes in isolated rat liver microsomes” value in series [2] is reported as “poor substrate”. Moreover, at μ-Opiate Receptors (from EC50 values), the “Bioactivity relative to the parent compound” value was “about 35%”. Besides, the response on μ-Opiate Receptors (μ-opiate receptors, in-vitro) was half-maximal at 31.7 nM (EC50). Further, the “Mean Plasma Concentration ± SD, 1 hr” value in [3] (1 hr) amounted to 53.79 ± 5.19 ng/mL. For the same molecule, the “Mean Plasma Concentration ± SD, 2 hr” value in series [3] (2 hr) was 22.47 ± 8.78 ng/mL. The “Percentage of Active Remaining After Incubation with Liver Microsomes” value (0 min) was determined as 100.0%, the “Percentage of Active Remaining After Incubation with Liver Microsomes” value (20 min) turned out to be 83.9%, the “Percentage of Active Remaining After Incubation with Liver Microsomes” value (40 min) worked out at 75.2% and the “Percentage of Active Remaining After Incubation with Liver Microsomes” value (60 min) is 69.6%.
`C[C@]12C=CC(=O)C=C1CC[C@H]1[C@@H]3C[C@@H](O)[C@](O)(C(=O)CO)[C@@]3(C)C[C@H](O)[C@@]12F` [TA, triamcinolone]: the “Concentration for complete translocation of hGR to the nucleus” value in series [4] is ≥ 10 nM. For the same molecule, the hGR localization result in series [4] (1 nM (lowest concentration), overnight) was “predominantly in the nucleus”. Moreover, the Ki in series [5] is 45.5 ± 21.1 nM. The molecule also came in with a concentration for a half-maximal effect (EC50) at hGR of 0.545 nM.
In the case of `CC1(C)O[C@@H]2C[C@H]3[C@@H]4CCC5=CC(=O)C=C[C@]5(C)[C@@]4(F)[C@@H](O)C[C@]3(C)[C@]2(C(=O)CO)O1` [TAA, triamcinolone acetonide], in series [5], the “Fold difference vs TAA (Ki, Binding assay)” value came to 1 and the Ki turned out to be 2.2 ± 0.5 nM. Moreover, at hGR, the “Fold difference vs TAA (EC50, Luciferase assay)” value stood at 1 and it took 0.062 ± 0.011 nM to reach a half-maximal effect (EC50).
As for `Nc1nc(F)nc2c1ncn2[C@@H]1O[C@H](CO)[C@@H](O)[C@@H]1O` [fludarabine], in series [6], the Oral bioavailability result was “about 70%”.
